Common to all, as to assay type: physicochemical
The nature of data set [1]: Comparison of dyes: emission/absorbance ratio (apparent quantum yield) in pH 7.4 PBS. To be noted: 1 × 10^−5 M in pH 7.4 PBS.
Data set [2] in a line: Determination of dye pKa via pH study, dye immobilized in 40% DMAA hydrogel. The method, then:
A hydrogel was prepared containing mono-CysMA, as described previously in U.S. patent application Ser. No. 11/671,880, to evaluate the fluorescence properties (excitation (ex), emission (em) and pKa) of mono-CysMA.
A pH study was carried out with the gel.
The three polymerizable dyes were immobilized using 40% DMAA and their pKa determined via a pH study.

The nature of data set [3]: Fluorescence of the dye in pH 7.4 PBS measured on the fluorimeter. As to conditions: pH 7.4 PBS (FIG. 9). The method, then: Bis-MA was dissolved in pH 7.4 PBS and its fluorescence was measured on the fluorimeter. FIG. 9 compares Bis-MA with the Mono- and Tri-substituted HPTS derivatives.

A word on the pKa: it is the pH at which an ionisable group is half protonated. A low value points to a stronger acid or weaker base. Consider `O=S(=O)(O)c1cc(O)c2ccc3c(S(=O)(=O)O)cc(S(=O)(=O)O)c4ccc1c2c34` [HPTS, 8-hydroxypyrene-1,3,6-trisulfonic acid], for which, in data set [1], the Absorbance came to 0.1565. In addition, the Intensity at max in data set [1] (emission) is reported as 553. Also, in data set [1] (Em/Abs ratio, apparent quantum yield, arbitrary numbers), the “Ratio (“Quantum Yield”)” value is 3533. Further, the pKa in data set [2] (dye immobilized in 40% DMAA hydrogel, polymerizable dyes immobilized using 40% DMAA, pH study) was 7.3; in data set [2] (pH study with hydrogel containing mono-CysMA (FIG. 2), HPTS given for comparison), 7.3.

On to `C=C(C)C(=O)NCCCNS(=O)(=O)c1cc(S(=O)(=O)NCCCNC(=O)C(=C)C)c2ccc3c(S(=O)(=O)[O-])cc(O)c4ccc1c2c43.[Na+]` [Bis-MA], for which the “Shift of fluorescence spectrum relative to mono- and tri-substituted HPTS derivatives” value in data set [3] is on record as “red-shifted relative to the Mono product but blue-shifted relative to the Tri product”.

The record behind these values is patent publication US8202731B2, “HPTS-mono and bis Cys-MA polymerizable fluorescent dyes for use in analyte sensors” (Glumetrics, Inc., priority 2007, dated 2012).
